Earlier results in patent US20130267590A1, “RETIGABINE COMPOSITIONS” (Dr. Reddy's Laboratories Limited, priority 2011, published 2013).
Structures can show the parent of a compound that is named as a salt.

Experiments:
[1] = system: KCNQ (Kv7.2 to 7.5) family of ion channels; conditions: in vitro

SMILES | effect on transmembrane potassium currents mediated by KCNQ channels [1] | oxidation stability (contact with air) | storage stability (medium to long-term storage at −18° C.)
CCOC(=O)Nc1ccc(NCc2ccc(F)cc2)cc1N [retigabine, ethyl 2-amino-4-(4-fluorobenzylamino) phenylcarbamate] | enhances transmembrane potassium currents | oxidize upon contact with air | –
CCOC(=O)Nc1ccc(NCc2ccc(F)cc2)cc1N [dihydrochloride salt of retigabine] | – | – | unstable
